Legend:
HCRTR2 = target: T1, HCRTR2 (Homo sapiens, UniProt O43614); assay: NanoBRET screen HiBiT-HCRTR2 in HEK293; type: binding
T1 construct: purchased Promega (in-house HiBiT-GPCR construct library, NanoBRET)
T1 sequence (O43614 1-444): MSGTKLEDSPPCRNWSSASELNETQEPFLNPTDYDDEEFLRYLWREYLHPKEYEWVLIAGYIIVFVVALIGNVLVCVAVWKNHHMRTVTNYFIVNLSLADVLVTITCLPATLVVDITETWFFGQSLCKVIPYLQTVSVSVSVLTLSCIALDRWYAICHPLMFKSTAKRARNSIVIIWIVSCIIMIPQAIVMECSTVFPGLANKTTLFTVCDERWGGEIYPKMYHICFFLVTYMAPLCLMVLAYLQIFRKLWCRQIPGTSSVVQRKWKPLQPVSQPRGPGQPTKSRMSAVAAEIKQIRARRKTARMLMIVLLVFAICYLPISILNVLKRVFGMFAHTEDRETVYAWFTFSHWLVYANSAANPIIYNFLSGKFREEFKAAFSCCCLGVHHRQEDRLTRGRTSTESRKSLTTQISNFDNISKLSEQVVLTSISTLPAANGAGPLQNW
Method: (§1) Each tracer candidate was screened across the entire library of HiBiT-GPCR constructs using NanoBRET as the detection modality. As depicted in Figure 4A, the specificity of interactions was evaluated through decrease in BRET due to competitive displacement of a bound tracer by excess parental compound. Each tracer was analyzed for binding to each HiBiT-GPCR fusion in the absence and in the presence of competing parental compound. Briefly, HEK293 cells were transfected with HiBiT-GPCR constructs diluted into promoterless DNA to reduce expression and maximize translocation to the cell surface. Each tracer candidate was then screened at concentrations of 1 μM and 0.1 μM across cells expressing these fusions. Cells were treated for 1.5 h with tracer either alone or in the presence of 20 μM competing parental compound (i.e., control). BRET was measured upon addition of purified LgBiT and subsequent complementation with HiBiT genetically fused to a GPCR. The specificity of interactions was assessed through a decrease in BRET signal due to competitive displacement of the bound tracer. To further gauge the robustness of these interactions, the fold response over the control (i.e., BRETtracer/BRETcontrol) was calculated. We chose a 1.5-fold response, which translates to ≥7-fold signal over noise as the minimal threshold required to score an interaction as positive. […]. Below we highlight the screening results obtained for our exemplary fluorescent tracers based on Clozapine, Amitriptyline and AZD1283.
(§2) HiBiT-GPCR DNA constructs were diluted in 10 mM Tris pH 8 to a final concentration of 0.01 μg/μL, arrayed in 96-well plates and stored at −20 °C. For transfection, HEK293 cells were suspended in Opti-MEM (without phenol red) supplemented with 2% fetal bovine serum (Seradigm) and 100 units/mL penicillin–streptomycin (Gibco) at a final concentration of 220,000 cells/mL and dispensed into white 96-well plates at 90 μL/well. Subsequent transfections and screens were carried using an Agilent Bravo Automated Liquid Handling Platform. First, the 96-well HiBiT DNA arrays were diluted 25-fold in Opti-MEM (without serum or phenol red) to a final concentration of 0.0004 μg/μL and 20 μL of the diluted DNAs were transferred into new 96-well plates. Next, promoterless carrier DNA (1 μg/μL) was diluted 25-fold (0.04 μg/μL) and then dispensed into the diluted arrays at 20 μL/well. Following brief mixing, Viafect transfection reagent (Promega) diluted 16-fold into Opti-MEM was dispensed into the plates at 40 μL/well. After mixing by pipetting, plates were incubated for 10 min on the pipetting station deck. The DNA-transfection reagent complexes were then added to plates containing cells. To facilitate the screen, 10 μL of DNA-transfection reagent complexes were added in duplicates to the top 4 and bottom 4 rows, resulting in two identical 48-well arrays per plate. Plates with transfected cells were incubated for 18–20 h at 37 °C/5% CO2. A screen of each tracer across the entire library using two different concentrations requires duplicate plates of transfected cells. Depending on the number of tracers being screened, transfections can be scaled up using the same ratios. The next day, for each tracer, four 20× screening solutions in tracer dilution buffer (Promega) were prepared: two duplicates at final concentration of 20 μM and two duplicates at a final concentration of 2 μM. A competing unmodified compound was added to one of each duplicate at a final concentration of 400 μM. The four resulting solutions were diluted 4-fold in Opti-MEM without serum or phenol red to generate 5× solutions (5 µM and 0.5 µM tracer +/− 100 μM competing compound). To screen the library, a BioTek MultiFlo FX liquid dispenser was used to dispense 22.5 µL of tracer solution to the top 4 rows and 22.5 µL tracer + competing compound solution to the 4 bottom rows. Plates were briefly mixed on an orbital shaker and incubated for 1.5 h at room temperature. […]

HRH2 = target: T2, HRH2 (Homo sapiens, UniProt P25021); assay: NanoBRET screen HiBiT-HRH2 in HEK293; type: binding
T2 construct: purchased Promega (in-house HiBiT-GPCR construct library, NanoBRET)
T2 sequence (P25021 whole entry): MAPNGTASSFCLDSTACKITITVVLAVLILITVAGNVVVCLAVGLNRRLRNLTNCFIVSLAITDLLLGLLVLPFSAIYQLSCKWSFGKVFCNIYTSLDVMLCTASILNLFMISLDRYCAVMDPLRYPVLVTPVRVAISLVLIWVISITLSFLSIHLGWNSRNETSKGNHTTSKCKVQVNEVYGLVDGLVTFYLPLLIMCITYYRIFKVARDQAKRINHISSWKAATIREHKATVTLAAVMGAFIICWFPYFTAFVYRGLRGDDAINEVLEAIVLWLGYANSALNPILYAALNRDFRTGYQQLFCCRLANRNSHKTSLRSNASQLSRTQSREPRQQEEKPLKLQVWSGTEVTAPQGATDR
Method: as §1, §2

[1] = tracer at 0.1μM, listed as amitriptyline-b-2-NB590
[2] = tracer at 1μM, listed as amitriptyline-b-2-NB590

| SMILES | NanoBRET Fold Response (HCRTR2; HCRTR2, tracer 0.1μM) | NanoBRET Fold Response (HCRTR2; HCRTR2, tracer 1μM) | NanoBRET Fold Response (HRH2; HRH2, tracer 0.1μM) | NanoBRET Fold Response (HRH2; HRH2, tracer 1μM) | further results |
| --- | --- | --- | --- | --- | --- |
| O=C(CCc1ccc2n1[B-](F)(F)[N+]1=C(c3ccc[nH]3)C=CC1=C2)NCc1ccc(C(=O)NCCOCCC(=O)N[C@@H]2CC[C@@]3(O)[C@H]4Cc5ccc(O)c6c5[C@@]3(CCN4CC3CC3)[C@H]2O6)cc1 [Naltrexone-3-NB590] | 1.04 | 1.01 | 0.85 | 1.34 | – |
| CCCn1c(=O)c2[nH]c(-c3ccc(OCC(=O)NCCNC(=O)CCOCCNC(=O)c4ccc(CNC(=O)CCc5ccc6n5[B-](F)(F)[N+]5=C(c7ccc[nH]7)C=CC5=C6)cc4)cc3)nc2n(CCC)c1=O [XAC-3-NB590] | 1.06 | 0.97 | 0.82 | 1.15 | – |
| CC(C)N(CC[C@H](c1ccccc1)c1cc(CCNC(=O)c2ccc(CNC(=O)CCc3ccc4n3[B-](F)(F)[N+]3=C(c5ccc[nH]5)C=CC3=C4)cc2)ccc1O)C(C)C [Tolterodine-BZ-NB590] | 0.91 | 1.06 | 1.05 | 0.87 | – |
| COc1ccc2[nH]c(-c3ccc(CNC(=O)CCOCCOCCOCCOCCNC(=O)CCc4ccc5n4[B-](F)(F)[N+]4=C(c6ccc[nH]6)C=CC4=C5)cc3)c(CCNC(C)=O)c2n1 [AzomelatoninICO9-2-NB590] | – | – | – | – | NanoBRET Fold Response (HCRTR2; 0.1μM tracer): 1.02; NanoBRET Fold Response (HCRTR2; 1μM tracer): 1.08; NanoBRET Fold Response (HRH2; 0.1μM tracer): 1.11; NanoBRET Fold Response (HRH2; 1μM tracer): 1.07 |
| CN1CCN(C2=Nc3cc(Cl)ccc3N(CC(=O)NCCOCCOCCOCCOCCNC(=O)CCc3ccc4n3[B-](F)(F)[N+]3=C(c5ccc[nH]5)C=CC3=C4)c3ccccc32)CC1 [Clozapine-c-2-NB590] | – | – | – | – | NanoBRET Fold Response (HCRTR2; HCRTR2, 0.1μM tracer): 0.97; NanoBRET Fold Response (HCRTR2; HCRTR2, 1μM tracer): 1.04; NanoBRET Fold Response (HRH2; HRH2, 0.1μM tracer): 0.92; NanoBRET Fold Response (HRH2; HRH2, 1μM tracer): 0.95 |
| COc1ccccc1N1CCN(CCCCN2C(=O)c3ccc(CNC(=O)CCOCCNC(=O)c4ccc(CNC(=O)CCc5ccc6n5[B-](F)(F)[N+]5=C(c7ccc[nH]7)C=CC5=C6)cc4)cc3C2=O)CC1 [NAN-190-3-NB590] | 0.98 | 0.97 | 1.07 | 1.08 | – |
| Cc1nc2n(c(=O)c1CCN1CCC(c3noc4cc(F)ccc34)CC1)CCCC2OC(=O)NCCOCCOCCOCCOCCNC(=O)CCc1ccc2n1[B-](F)(F)[N+]1=C(c3ccc[nH]3)C=CC1=C2 (stereo not drawn) [Risperidone-2-NB590] | 0.98 | 0.96 | 1.05 | 1.13 | – |
| O=C(CCOCCOCCOCCOCCNC(=O)CCc1ccc2n1[B-](F)(F)[N+]1=C(c3ccc[nH]3)C=CC1=C2)NCCCN1CCN(C2=Nc3ccccc3Oc3ccc(Cl)cc32)CC1 [Loxapine-a-2-NB590] | 1.13 | 1.16 | 0.79 | 1.06 | – |
| COc1ccccc1N1CCN(CCCCN2C(=O)c3ccc(CNC(=O)CCOCCOCCOCCOCCNC(=O)CCc4ccc5n4[B-](F)(F)[N+]4=C(c6ccc[nH]6)C=CC4=C5)cc3C2=O)CC1 [NAN-190-2-NB590] | 1.02 | 1.00 | 0.94 | – | – |
| CC(C)N(CC[C@H](c1ccccc1)c1cc(CCNC(=O)CCOCCOCCOCCOCCNC(=O)CCc2ccc3n2[B-](F)(F)[N+]2=C(c4ccc[nH]4)C=CC2=C3)ccc1O)C(C)C [Tolterodine-2-NB590] | 1.04 | 1.00 | 1.06 | 0.82 | – |
| N#CN=C(NCCCOc1cccc(CN2CCCCC2)c1)NCCNC(=O)CCOCCOCCOCCOCCNC(=O)CCc1ccc2n1[B-](F)(F)[N+]1=C(c3ccc[nH]3)C=CC1=C2 [Aminopotentidine-2-NB590] | 1.01 | 0.97 | 5.51 | 3.65 | – |
| CCOC(=O)c1cc(C#N)c(N2CCC(C(=O)NS(=O)(=O)Cc3ccccc3/C=C/C(=O)NCCNC(=O)CCc3ccc4n3[B-](F)(F)[N+]3=C(c5ccc[nH]5)C=CC3=C4)CC2)nc1C [AZD1283-1-NB590] | – | – | – | – | NanoBRET Fold Response (HCRTR2; HCRTR2, 0.1μM): 1.01; NanoBRET Fold Response (HCRTR2; HCRTR2, 1μM): 1.01; NanoBRET Fold Response (HRH2; HRH2, 0.1μM): 0.90; NanoBRET Fold Response (HRH2; HRH2, 1μM): 1.03 |
| CN(C)CCC=C1c2ccccc2CCc2ccc(C(=O)NCCNC(=O)CCOCCOCCOCCOCCNC(=O)CCc3ccc4n3[B-](F)(F)[N+]3=C(c5ccc[nH]5)C=CC3=C4)cc21 [Amitriptyline-b-2-NB590] | – | – | – | – | NanoBRET Fold Response (HCRTR2; [1]): 1.00; NanoBRET Fold Response (HCRTR2; [2]): 0.98; NanoBRET Fold Response (HRH2; [1]): 0.85; NanoBRET Fold Response (HRH2; [2]): 1.05 |
| CN(C)CCC=C1c2ccccc2CCc2ccc(C(=O)NCCNC(=O)CCOCCOCCOCCOCCNC(=O)CCc3ccc4n3[B-](F)(F)[N+]3=C(c5ccc[nH]5)C=CC3=C4)cc21 [Amitriptyline-a-2-NB590] | – | – | – | – | NanoBRET Fold Response (HCRTR2; tracer at 0.1μM): 1.05; NanoBRET Fold Response (HCRTR2; tracer at 1μM): 1.08; NanoBRET Fold Response (HRH2; tracer at 0.1μM): 1.00; NanoBRET Fold Response (HRH2; tracer at 1μM): 0.99 |
| O=C(CCc1ccc2n1[B-](F)(F)[N+]1=C(c3ccc[nH]3)C=CC1=C2)NCCOCCOCCNC(=O)OCCOCCN1CCN(C2=Nc3ccccc3Sc3ccccc32)CC1 [Quetiapine-a-2-NB590] | 1.01 | 0.84 | 0.81 | 1.05 | – |
| Cc1cc2c(s1)Nc1ccccc1N=C2N1CCN(CCCNC(=O)CCOCCOCCOCCOCCNC(=O)CCc2ccc3n2[B-](F)(F)[N+]2=C(c4ccc[nH]4)C=CC2=C3)CC1 [Olanzapine-a-2-NB590] | 0.95 | 0.97 | 0.89 | 0.85 | – |
| CN1CCN(C2=Nc3cc(Cl)ccc3Nc3ccc(CNC(=O)CCOCCOCCOCCOCCNC(=O)CCc4ccc5n4[B-](F)(F)[N+]4=C(c6ccc[nH]6)C=CC4=C5)cc32)CC1 [Clozapine-b-2-NB590] | – | – | – | – | NanoBRET Fold Response (HCRTR2; HCRTR2, 0.1μM tracer): 0.99; NanoBRET Fold Response (HCRTR2; HCRTR2, 1μM tracer): 0.98; NanoBRET Fold Response (HRH2; HRH2, 0.1μM tracer): 1.01; NanoBRET Fold Response (HRH2; HRH2, 1μM tracer): 0.97 |
| COc1ccc2c(n1)c(CCNC(C)=O)cn2CCNC(=O)CCc1ccc2n1[B-](F)(F)[N+]1=C(c3ccc[nH]3)C=CC1=C2 [Azamelatonin-1-NB590] | – | – | – | – | NanoBRET Fold Response (HCRTR2; 0.1μM tracer): 1.04; NanoBRET Fold Response (HCRTR2; 1μM tracer): 1.30; NanoBRET Fold Response (HRH2; 0.1μM tracer): 0.99; NanoBRET Fold Response (HRH2; 1μM tracer): 0.99 |
| CN(CCC=C1c2ccccc2CCc2ccccc21)C(=O)CCOCCOCCOCCOCCNC(=O)CCc1ccc2n1[B-](F)(F)[N+]1=C(c3ccc[nH]3)C=CC1=C2 [Amitriptyline-e-2-NB590] | – | – | – | – | NanoBRET Fold Response (HRH2; tracer at 1μM): 0.95 |

From article PMC8151276, “An Integrated Approach toward NanoBRET Tracers for Analysis of GPCR Ligand Engagement” (Molecules, 2021)
